PubChem BioAssay (NCI)
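Interpolation was linear, between the two tested concentrations surrounding the appropriate level; five concentrations were tested over 48 hours in 96-well plates. Definition used: TGI = concentration required for complete inhibition of growth.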

Columns and labels:
Assay in all cases: NCI tumour cell line growth inhibition, 48 h
786-0 renal = test system: 786-0 renal
A549 NSCLC = test system: A549 NSCLC
ACHN renal = test system: ACHN renal
CAKI-1 renal = test system: CAKI-1 renal
CCRF-CEM leukemia = test system: CCRF-CEM leukemia
COLO 205 colon = test system: COLO 205 colon
DLD-1 colon = test system: DLD-1 colon
DMS 114 small cell lung = test system: DMS 114 small cell lung
DMS 273 small cell lung = test system: DMS 273 small cell lung
EKVX NSCLC = test system: EKVX NSCLC
HCC-2998 colon = test system: HCC-2998 colon
HCT-116 colon = test system: HCT-116 colon
HOP-62 NSCLC = test system: HOP-62 NSCLC
HOP-92 NSCLC = test system: HOP-92 NSCLC
HT29 colon = test system: HT29 colon
IGROV1 ovarian = test system: IGROV1 ovarian
K-562 leukemia = test system: K-562 leukemia
KM12 colon = test system: KM12 colon
LOX IMVI melanoma = test system: LOX IMVI melanoma
LXFL 529 NSCLC = test system: LXFL 529 NSCLC
M14 melanoma = test system: M14 melanoma
M19-MEL melanoma = test system: M19-MEL melanoma
MALME-3M melanoma = test system: MALME-3M melanoma
MOLT-4 leukemia = test system: MOLT-4 leukemia
NCI-H226 lung = test system: NCI-H226 lung
NCI-H23 lung = test system: NCI-H23 lung
NCI-H460 lung = test system: NCI-H460 lung
NCI-H522 lung = test system: NCI-H522 lung
OVCAR-3 ovarian = test system: OVCAR-3 ovarian
OVCAR-4 ovarian = test system: OVCAR-4 ovarian
OVCAR-5 ovarian = test system: OVCAR-5 ovarian
OVCAR-8 ovarian = test system: OVCAR-8 ovarian
RXF 393 renal = test system: RXF 393 renal
SF-268 CNS = test system: SF-268 CNS
SF-295 CNS = test system: SF-295 CNS
SF-539 CNS = test system: SF-539 CNS
SK-MEL-2 melanoma = test system: SK-MEL-2 melanoma
SK-MEL-28 melanoma = test system: SK-MEL-28 melanoma
SK-MEL-5 melanoma = test system: SK-MEL-5 melanoma
SK-OV-3 ovarian = test system: SK-OV-3 ovarian
SN12C renal = test system: SN12C renal
SNB-19 CNS = test system: SNB-19 CNS
SNB-75 CNS = test system: SNB-75 CNS
SNB-78 CNS = test system: SNB-78 CNS
SR leukemia = test system: SR leukemia
SW-620 colon = test system: SW-620 colon
TK-10 renal = test system: TK-10 renal
U251 CNS = test system: U251 CNS
UACC-62 melanoma = test system: UACC-62 melanoma
UO-31 renal = test system: UO-31 renal
XF 498 CNS = test system: XF 498 CNS
A498 renal = test system: A498 renal
BT-549 breast = test system: BT-549 breast
DU-145 prostate = test system: DU-145 prostate
HCT-15 colon = test system: HCT-15 colon
HL-60(TB) leukemia = test system: HL-60(TB) leukemia
HOP-18 NSCLC = test system: HOP-18 NSCLC
HS 578T breast = test system: HS 578T breast
KM20L2 colon = test system: KM20L2 colon
MCF7 breast = test system: MCF7 breast
MDA-MB-231 breast = test system: MDA-MB-231 breast
MDA-MB-435 = test system: MDA-MB-435
MDA-N = test system: MDA-N
NCI/ADR-RES ovarian = test system: NCI/ADR-RES ovarian
PC-3 prostate = test system: PC-3 prostate
RPMI-8226 leukemia = test system: RPMI-8226 leukemia
T-47D breast = test system: T-47D breast
UACC-257 melanoma = test system: UACC-257 melanoma

CN(C)CCCn1cnc2ncccc2c1=O
TGI (786-0 renal): > 100 µM
TGI (A549 NSCLC): > 100 µM
TGI (ACHN renal): > 100 µM
TGI (CAKI-1 renal): > 100 µM
TGI (CCRF-CEM leukemia): > 100 µM
TGI (COLO 205 colon): > 100 µM
TGI (DLD-1 colon): > 100 µM
TGI (DMS 114 small cell lung): > 100 µM
TGI (DMS 273 small cell lung): > 100 µM
TGI (EKVX NSCLC): > 100 µM
TGI (HCC-2998 colon): > 100 µM
TGI (HCT-116 colon): > 100 µM
TGI (HOP-62 NSCLC): > 100 µM
TGI (HOP-92 NSCLC): > 100 µM
TGI (HT29 colon): > 100 µM
TGI (IGROV1 ovarian): > 100 µM
TGI (K-562 leukemia): > 100 µM
TGI (KM12 colon): > 100 µM
TGI (LOX IMVI melanoma): > 100 µM
TGI (LXFL 529 NSCLC): > 100 µM
TGI (M14 melanoma): > 100 µM
TGI (M19-MEL melanoma): > 100 µM
TGI (MALME-3M melanoma): > 100 µM
TGI (MOLT-4 leukemia): > 100 µM
TGI (NCI-H226 lung): > 100 µM
TGI (NCI-H23 lung): > 100 µM
TGI (NCI-H460 lung): > 100 µM
TGI (NCI-H522 lung): > 100 µM
TGI (OVCAR-3 ovarian): > 100 µM
TGI (OVCAR-4 ovarian): > 100 µM
TGI (OVCAR-5 ovarian): > 100 µM
TGI (OVCAR-8 ovarian): > 100 µM
TGI (RXF 393 renal): > 100 µM
TGI (SF-268 CNS): > 100 µM
TGI (SF-295 CNS): > 100 µM
TGI (SF-539 CNS): > 100 µM
TGI (SK-MEL-2 melanoma): > 100 µM
TGI (SK-MEL-28 melanoma): > 100 µM
TGI (SK-MEL-5 melanoma): > 100 µM
TGI (SK-OV-3 ovarian): > 100 µM
TGI (SN12C renal): > 100 µM
TGI (SNB-19 CNS): > 100 µM
TGI (SNB-75 CNS): > 100 µM
TGI (SNB-78 CNS): > 100 µM
TGI (SR leukemia): > 100 µM
TGI (SW-620 colon): > 100 µM
TGI (TK-10 renal): > 100 µM
TGI (U251 CNS): > 100 µM
TGI (UACC-62 melanoma): > 100 µM
TGI (UO-31 renal): > 100 µM
TGI (XF 498 CNS): > 100 µM

COc1c(O)c2ccccc2c2cc(O)ccc12
TGI (786-0 renal): 25.1 µM
TGI (A498 renal): 24.1 µM
TGI (A549 NSCLC): 23.9 µM
TGI (ACHN renal): 14.5 µM
TGI (BT-549 breast): 7.04 µM
TGI (CAKI-1 renal): 22.9 µM
TGI (CCRF-CEM leukemia): 73.8 µM
TGI (COLO 205 colon): 31.5 µM
TGI (DLD-1 colon): 25.5 µM
TGI (DMS 114 small cell lung): 6.03 µM
TGI (DMS 273 small cell lung): 20.5 µM
TGI (DU-145 prostate): 21 µM
TGI (EKVX NSCLC): 32.9 µM
TGI (HCC-2998 colon): 32.7 µM
TGI (HCT-116 colon): 13.8 µM
TGI (HCT-15 colon): 20.1 µM
TGI (HL-60(TB) leukemia): 27 µM
TGI (HOP-18 NSCLC): 3.72 µM
TGI (HOP-62 NSCLC): 31.3 µM
TGI (HOP-92 NSCLC): 24.3 µM
TGI (HS 578T breast): > 58.9 µM
TGI (HT29 colon): 47.4 µM
TGI (IGROV1 ovarian): 21.6 µM
TGI (K-562 leukemia): 21.9 µM
TGI (KM12 colon): 25.7 µM
TGI (KM20L2 colon): 46.6 µM
TGI (LOX IMVI melanoma): 7.53 µM
TGI (LXFL 529 NSCLC): 9.9 µM
TGI (M14 melanoma): 8.57 µM
TGI (M19-MEL melanoma): 3.59 µM
TGI (MALME-3M melanoma): 3.18 µM
TGI (MCF7 breast): 8.22 µM
TGI (MDA-MB-231 breast): 19.4 µM
TGI (MDA-MB-435): 2300 nM
TGI (MDA-N): 2570 nM
TGI (MOLT-4 leukemia): 77.4 µM
TGI (NCI-H226 lung): 31.6 µM
TGI (NCI-H23 lung): 10.6 µM
TGI (NCI-H460 lung): 23.3 µM
TGI (NCI-H522 lung): 15.7 µM
TGI (NCI/ADR-RES ovarian): 29.5 µM
TGI (OVCAR-3 ovarian): 19.2 µM
TGI (OVCAR-4 ovarian): 22.8 µM
TGI (OVCAR-5 ovarian): 21.7 µM
TGI (OVCAR-8 ovarian): 15.4 µM
TGI (PC-3 prostate): 60.1 µM
TGI (RPMI-8226 leukemia): 35.7 µM
TGI (RXF 393 renal): 22.9 µM
TGI (SF-268 CNS): 28.8 µM
TGI (SF-295 CNS): 23.5 µM
TGI (SF-539 CNS): 9.88 µM
TGI (SK-MEL-2 melanoma): 11.9 µM
TGI (SK-MEL-28 melanoma): 11.9 µM
TGI (SK-MEL-5 melanoma): 5.59 µM
TGI (SK-OV-3 ovarian): 55 µM
TGI (SN12C renal): 14.1 µM
TGI (SNB-19 CNS): 28.2 µM
TGI (SNB-75 CNS): 22.7 µM
TGI (SNB-78 CNS): 46.6 µM
TGI (SR leukemia): > 68.4 µM
TGI (SW-620 colon): 6.69 µM
TGI (T-47D breast): 38.4 µM
TGI (TK-10 renal): 61.2 µM
TGI (U251 CNS): 17.9 µM
TGI (UACC-257 melanoma): 5.24 µM
TGI (UACC-62 melanoma): 6.1 µM
TGI (UO-31 renal): 11.4 µM
TGI (XF 498 CNS): 5.13 µM

COCCNC(=O)C1C(=O)N(CCOC)C(=O)/C1=N/N (stereo not given)
TGI (786-0 renal): > 100 µM
TGI (A549 NSCLC): > 100 µM
TGI (ACHN renal): > 100 µM
TGI (CAKI-1 renal): > 100 µM
TGI (CCRF-CEM leukemia): > 100 µM
TGI (DLD-1 colon): > 100 µM
TGI (DMS 273 small cell lung): > 100 µM
TGI (EKVX NSCLC): > 100 µM
TGI (HCT-116 colon): > 100 µM
TGI (HCT-15 colon): > 100 µM
TGI (HL-60(TB) leukemia): > 100 µM
TGI (HOP-92 NSCLC): > 100 µM
TGI (HT29 colon): > 100 µM
TGI (IGROV1 ovarian): > 100 µM
TGI (K-562 leukemia): > 100 µM
TGI (KM12 colon): > 100 µM
TGI (KM20L2 colon): > 100 µM
TGI (LOX IMVI melanoma): > 100 µM
TGI (LXFL 529 NSCLC): > 100 µM
TGI (M14 melanoma): > 100 µM
TGI (M19-MEL melanoma): > 100 µM
TGI (MALME-3M melanoma): > 100 µM
TGI (MOLT-4 leukemia): > 100 µM
TGI (NCI-H226 lung): > 100 µM
TGI (NCI-H23 lung): > 100 µM
TGI (NCI-H522 lung): > 100 µM
TGI (OVCAR-3 ovarian): > 100 µM
TGI (RPMI-8226 leukemia): > 100 µM
TGI (SF-268 CNS): > 100 µM
TGI (SF-295 CNS): > 100 µM
TGI (SF-539 CNS): > 100 µM
TGI (SK-MEL-2 melanoma): > 100 µM
TGI (SK-MEL-28 melanoma): > 100 µM
TGI (SK-OV-3 ovarian): > 100 µM
TGI (SN12C renal): > 100 µM
TGI (SNB-19 CNS): > 100 µM
TGI (SNB-75 CNS): > 100 µM
TGI (SNB-78 CNS): > 100 µM
TGI (SR leukemia): > 100 µM
TGI (SW-620 colon): > 100 µM
TGI (TK-10 renal): > 100 µM
TGI (U251 CNS): > 100 µM
TGI (UACC-257 melanoma): > 100 µM
TGI (UACC-62 melanoma): > 100 µM
TGI (UO-31 renal): > 100 µM
TGI (XF 498 CNS): > 100 µM
